Each block holds one compound with its values, some of them ahead of it.
What was measured:
[1] = target: T1, Nicotinamide N-methyltransferase (Mus musculus, UniProt O55239); assay: Inhibition of endogenous mouse NNMT overexpressed in murine 3T3-L1 cells assessed incubated for 24 hrs by LC-MS/MS analysis
T1 sequence (O55239 whole entry): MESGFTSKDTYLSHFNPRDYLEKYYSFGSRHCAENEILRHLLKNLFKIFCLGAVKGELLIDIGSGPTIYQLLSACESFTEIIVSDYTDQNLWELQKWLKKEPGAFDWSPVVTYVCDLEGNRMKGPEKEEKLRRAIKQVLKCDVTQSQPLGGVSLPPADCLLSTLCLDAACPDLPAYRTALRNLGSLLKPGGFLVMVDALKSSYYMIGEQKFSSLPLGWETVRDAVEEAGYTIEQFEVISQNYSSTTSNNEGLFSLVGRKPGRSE

[2] = target: T2, Nicotinamide N-methyltransferase (Homo sapiens, UniProt P40261); assay: Inhibition of endogenous human NNMT overexpressed in human U2OS cells assessed incubated for 24 hrs by LC-MS/MS analysis
T2 sequence (P40261 whole entry): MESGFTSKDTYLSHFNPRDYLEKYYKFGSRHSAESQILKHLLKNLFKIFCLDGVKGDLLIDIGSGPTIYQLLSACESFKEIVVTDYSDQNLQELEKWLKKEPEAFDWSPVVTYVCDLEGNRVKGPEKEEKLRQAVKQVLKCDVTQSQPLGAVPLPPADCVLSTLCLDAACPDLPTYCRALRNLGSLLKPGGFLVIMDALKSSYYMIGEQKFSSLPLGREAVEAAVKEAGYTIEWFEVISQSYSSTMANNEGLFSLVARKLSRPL

[3] = target: T2, Nicotinamide N-methyltransferase; assay: Binding affinity to recombinant human NNMT SAM binding site expressed in Escherichia coli BL21 (DE3) using nicotinamide as substrate and AdoMet as cofactor preincubated for 10 mins followed by substrate addition and measured after 10 mins by UHP-HILIC-MS analysis
[4] = target: T2, Nicotinamide N-methyltransferase; assay: Inhibition of NNMT (unknown origin) assessed as formation of MNA using nicotinamide as substrate and SAM as cofactor by fluorescence based assay

- IC50 [1]: 6.3 µM
- IC50 [2]: 1.6 µM
Structure (SMILES): COc1ccc(C(N)=O)cn1

- IC50 [3]: 26.3 µM
Structure (SMILES): Nc1ncnc2c1ncn2[C@@H]1O[C@H](CSCC[C@H](N)C(=O)O)[C@@H](O)[C@H]1O [AdoHcy]

- IC50 [3]: 3.9 µM
Structure (SMILES): Nc1ncnc2c1ncn2[C@@H]1O[C@H](C[C@@H](N)CC[C@H](N)C(=O)O)[C@@H](O)[C@H]1O [SINEFUNGIN]

Structure (SMILES): C=C(C)[C@@]12O[C@@]3(/C=C/C=C/CCCCC)O[C@@H]1[C@@H]1[C@@H]4O[C@]4(CO)[C@@H](O)[C@]4(O)C(=O)C(C)=C[C@H]4[C@@]1(O3)[C@H](C)[C@H]2OC(C)=O [YUANHUADINE]
- IC50 [4]: 4 µM
